Columns and labels:
RTV-1033-3/227F = test: Phenotypic susceptibility assay, RTV-1033-3/227F; type: cell-based, HIV; conditions: RTV-1033-3 with F227L reverted
Excerpt: (§1) The resistance test vectors containing a functional luciferase gene cassette were constructed and host cells were transfected with the resistance test vector DNA. The resistant test vectors contained patient-derived reverse transcriptase and protease sequences that were either susceptible or resistant to the antiretroviral agents, such as nucleoside reverse transcriptase inhibitors, (NRTIs) non-nucleoside reverse transcriptase inhibitors […] protease inhibitors. The resistance test vector viral particles produced by transfecting the resistance test vector DNA into host cells, either in the presence or absence of PRIs, were used to infect target host cells grown either in the absence of NRTIs or NNRTIs, or in the presence of increasing concentrations of the drug. The amount of luciferase activity produced in infected target host cells in the presence of varying concentrations of drug was compared to the amount of luciferase produced in infected target host cells in the absence of drug. “Drug resistance” was measured as the amount of drug required to inhibit by 50% the luciferase activity detected in the absence of drug (inhibitory concentration 50%, IC50). The IC50 values were determined by plotting percent drug inhibition vs. log10 drug concentration. Stimulation of viral replication was measured as the percent increase in luciferase activity detected when infection occurs in the presence of drug as compared to in the absence of drug.
(§2) Host cells were seeded in 10-cm-diameter dishes and were transfected several days after plating with resistance test vector plasmid DNA and the envelope expression vector. Transfections were performed using a calcium-phosphate precipitation procedure. The cell culture media containing the DNA precipitate was replaced with fresh medium, from one to 24 hours, after transfection. Cell culture media containing resistance test vector viral particles was harvested one to four days after transfection and was passed through a […] filter before being used to infect target host cells, or being stored at −80° C. HIV capsid protein (p24) levels in the harvested cell culture media were determined by an EIA method as described by the manufacturer (SAIC; Frederick, Md.). Before infection, target cells (293 and 293/T) were plated in cell culture media. Control infections were performed using cell culture media from mock transfections (no DNA) or transfections containing the resistance test vector plasmid DNA without the envelope expression plasmid. One to three or more days after infection, the media was removed and cell lysis buffer (Promega) was added to each well. Cell lysates were assayed for luciferase activity (FIG. 3). The inhibitory effect of the drug was determined using the following equation:
(§3) % luciferase inhibition=1−(RLUluc[drug]÷RLUluc)×100
(§4) where RLUluc [drug] is the Relative Light Unit of luciferase activity in infected cells in the presence of drug, and RLUluc is the Relative Light Unit of luciferase activity in infected cells in the absence of drug. IC50values were obtained from the sigmoidal curves that were generated from the data by plotting the percent inhibition of luciferase activity vs. the log10 drug concentration. The percent luciferase stimulation is the negative of the % inhibition calculated using the formula above.
(§5) A resistance test vector containing all of the mutations present in RTV-1033-3 except for F227L (RTV-1033-3/227F) was constructed and tested using the phenotypic assay described earlier. The results were compared to those determined using the parent RTV-1033-3. We determined the pattern of phenotypic susceptibility to the NNRTIs, delavirdine, nevirapine and efavirenz, in the reverted vector, RTV-1033-3/227F.

RTV-012123 = test: Phenotypic susceptibility assay, RTV-012123; type: cell-based, HIV; conditions: patient 012123; for decrease in susceptibility: 245 with multiple other mutations
Excerpt: as §1, §2, §3, §4
(§6) A resistance test vector was constructed as described in Example 1 from a virus sample obtained from patient 012123. The prior and current treatment regimens are unknown. Isolation of viral RNA and RT/PCR was used to generate a patient derived segment (PDS) that comprised viral sequences coding for all of PR and aa 1-313 of RT. The PDS were inserted into an indicator gene viral vector to generate a resistance test vector designated RTV-012123. RTV-012123 was then tested in a phenotypic assay to determine accurately and quantitatively the level of susceptibility to a panel of anti-retroviral drugs. […]

RTV-V241S = test: Phenotypic susceptibility assay, RTV-V241S; type: cell-based, HIV-1; conditions: site-directed V241S alone
Excerpt: as §1, §2, §3, §4
A resistance test vector containing all of the mutations present in RTV-011073 except for the V241S and the T277K was constructed and tested using the phenotypic assay described earlier. The results were compared to those determined using the parent RTV-011073. We determined the pattern of phenotypic susceptibility to the NNRTIs, delavirdine, nevirapine and efavirenz, in the reverted vector RTV-011073/241V/277T. […] A resistance test vector containing all of the mutations present in RTV-011073 except for the V241S was constructed and tested using the phenotypic assay described earlier. The results were compared to those determined using the parent RTV-011073. […]

[1] = tested on: RTV-1033, RTV-008973, RTV-757, RTV-008980 and RTV-1080; test: Phenotypic susceptibility assay, patient 1033 RTV pools; type: cell-based, HIV; conditions: range over five RTV pools of one patient
Excerpt: as §1, §2, §3, §4
Resistance test vectors were constructed as described in Example 1 from virus samples obtained from an individual patient at thirteen separate time points over a 2½-year period. This patient had been previously treated with two NRTIs (zidovudine and lamivudine) AZT, 3TC (NRTIS), and a PRI (indinavir) for a period of approximately 2 years at the time the first (97-309) and second (98-754) samples were obtained. The patient began taking a new anti-viral regimen including an NRTI (stavudine), an NNRTI (nevirapine), and two PRIs (nelfinavir and saquinavir) at the time the third sample (98-1032) was obtained. […]

RTV-014397 = test: Phenotypic susceptibility assay, RTV-014397; type: cell-based, HIV; conditions: patient 014397; for decrease in susceptibility: 245 and 103
Excerpt: as §1, §2, §3, §4
as §6, with “014397.” for “012123.”, “RTV-014397. RTV-014397” for “RTV-012123. RTV-012123”

RTV-1033-3/181C = test: Phenotypic susceptibility assay, RTV-1033-3/181C; type: cell-based, HIV; conditions: RTV-1033-3 plus Y181C
Excerpt: as §1
Host cells were seeded in 10-cm-diameter dishes and were transfected several days after plating with resistance test vector plasmid DNA and the envelope expression vector. Transfections were performed using a calcium-phosphate precipitation procedure. […] HIV capsid protein (p24) levels in the harvested cell culture media were determined by an EIA method as described by the manufacturer (SAIC; Frederick, Md.). […] The inhibitory effect of the drug was determined using the following equation: […]
where RLUluc [drug] is the Relative Light Unit of luciferase activity in infected cells in the presence of drug, and RLUluc is the Relative Light Unit of luciferase activity in infected cells in the absence of drug. […] The percent luciferase stimulation is the negative of the % inhibition calculated using the formula above.
as §5, with “RTV-1033-3, in addition to Y181C (RTV-1033-3/181C)” for “RTV-1033-3 except for F227L (RTV-1033-3/227F)”, “mutated” for “reverted”, “RTV-1033-3/181C.” for “RTV-1033-3/227F.”

Compound: CC(C)Nc1cccnc1N1CCN(C(=O)c2cc3cc(NS(C)(=O)=O)ccc3[nH]2)CC1 [delavirdine]
- drug-dependent stimulation of viral replication (RTV-1033-3/227F): ~100%
- reductions in susceptibility compared to wild type control RTV (RTV-1033-3/227F): 72 fold
- drug-dependent stimulation of viral replication (RTV-012123): ~80%
- decrease in susceptibility (RTV-012123): > 250 fold
- drug-dependent stimulation of viral replication (RTV-V241S): ~25%
- reductions in susceptibility compared to wild type control RTV (RTV-V241S): 6 fold
- drug-dependent stimulation of viral replication [1]: 20 to 180%
- reductions in susceptibility [1]: 3 to 18 fold
- drug-dependent stimulation of viral replication (RTV-014397): ~100%
- decrease in susceptibility (RTV-014397): > 250 fold
- reduction in susceptibility compared to wild type control RTV (RTV-1033-3/181C): > 250 fold

Compound: O=C1Nc2ccc(Cl)cc2[C@@](C#CC2CC2)(C(F)(F)F)O1 [efavirenz]
- drug-dependent stimulation of viral replication (RTV-1033-3/227F): ~100%
- reductions in susceptibility compared to wild type control RTV (RTV-1033-3/227F): 18 fold
- drug-dependent stimulation of viral replication (RTV-012123): ~70%
- decrease in susceptibility (RTV-012123): > 450 fold
- drug-dependent stimulation of viral replication (RTV-V241S): no drug-dependent stimulation
- reductions in susceptibility compared to wild type control RTV (RTV-V241S): 3 fold
- drug-dependent stimulation of viral replication [1]: 30 to 170%
- reductions in susceptibility [1]: 16 to 300 fold
- drug-dependent stimulation of viral replication (RTV-014397): ~70%
- decrease in susceptibility (RTV-014397): > 450 fold
- drug-dependent stimulation of viral replication (RTV-1033-3/181C): ~100%
- reduction in susceptibility compared to wild type control RTV (RTV-1033-3/181C): > 450 fold

Compound: Cc1ccnc2c1NC(=O)c1cccnc1N2C1CC1 [nevirapine]
- drug-dependent stimulation of viral replication (RTV-1033-3/227F): ~120%
- reductions in susceptibility compared to wild type control RTV (RTV-1033-3/227F): > 600 fold
- drug-dependent stimulation of viral replication (RTV-012123): ~20%
- decrease in susceptibility (RTV-012123): > 600 fold
- drug-dependent stimulation of viral replication (RTV-V241S): ~30%
- reductions in susceptibility compared to wild type control RTV (RTV-V241S): 9 fold
- drug-dependent stimulation of viral replication [1]: 40 to 250%
- reductions in susceptibility [1]: > 600 fold
- drug-dependent stimulation of viral replication (RTV-014397): ~100%
- decrease in susceptibility (RTV-014397): > 600 fold
- reduction in susceptibility compared to wild type control RTV (RTV-1033-3/181C): > 600 fold

From US6653081B2, “Methods for monitoring antiretroviral therapy and guiding therapeutic decision in the treatment of HIV/AIDS” (ViroLogic, Inc., priority 2000, dated 2003)
